These results are taken from patent US10065990B2, “Cyclic peptide compound, and preparation method, pharmaceutical composition and use thereof” (HANGZHOU GUANYU BIO-MEDICAL CO., LTD, priority 2013, dated 2018).

Assay [1] concerns U937 (human leukemia cells). Briefly: MTT cancer cell growth inhibition. It is filed as cell-based. The conditions noted are these: Homo sapiens, U-937, 72 h, MTT, 72 hours incubation, read-out: GI50 U93. The essentials:
(§1)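 Following overnight attachment of 1500 cells per well, each line was exposed to test drug (final 10^−5 to 10^−10 M) for 72 h in a humidified 37° C., 5% CO2 incubator. Four hours with MTT, DMSO dissolution of formazan, and a 570 nm reading yielded viability data used for GI50.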

Assay [2] deals with Bel-7402 (human hepatoma cells). In words: MTT cancer cell growth inhibition. Particulars: Homo sapiens, Bel-7402, 72 h, MTT, 72 hours incubation, Bel-7402 cells; read-out: GI50 Bel-7402. The assay is classed as cell-based. The method in brief: as §1
Assay [3] has as its system Huh-7 (human hepatoma cells). In words: MTT cancer cell growth inhibition. The conditions noted are these: Homo sapiens, Huh-7, 72 h, MTT, 72 hours incubation, Huh-7 cells; read-out: GI50 Huh-7. The assay is classed as cell-based. The method in brief:
as §1

Assay [4] deals with K562 (human leukemia cells). Briefly: MTT cancer cell growth inhibition. It is filed as cell-based. Particulars: Homo sapiens, K562, 72 h, MTT, 72 hours incubation, K562 cells; read-out: GI50 K562. The method in brief: as §1
In assay [5] the test system is A549 (human lung cancer cells). In words: MTT cancer cell growth inhibition. Particulars: Homo sapiens, A549, 72 h, MTT, 72 hours incubation, read-out: GI50 A54. The assay is classed as cell-based. The essentials: as §1
Assay [6] has as its system PANC-1 (Pac-1, human pancreatic cancer cells). In words: MTT cancer cell growth inhibition. Particulars: Homo sapiens, PANC-1, 72 h, MTT, 72 hours incubation, read-out: GI50 PAN. The assay is classed as cell-based. The essentials:
as §1

The subject of assay [7] is HCC827 (human non-small cell lung cancer cells). Briefly: MTT cancer cell growth inhibition. The assay is classed as cell-based. Particulars: Homo sapiens, HCC827, 72 h, MTT, 72 hours incubation, HCC827 cells; read-out: GI50 HCC827. The essentials:
as §1

Assay [8] relates to MCF-7 (human breast cancer cells). In words: MTT cancer cell growth inhibition. The assay is classed as cell-based. Particulars: Homo sapiens, MCF7, 72 h, 72 hours incubation, read-out: GI50 MCF. The method in brief: as §1
For assay [9], the system named is DU145 (human prostate cancer cells). In words: MTT cancer cell growth inhibition. The assay is classed as cell-based. The conditions noted are these: Homo sapiens, DU-145, 72 h, MTT, 72 hours incubation, read-out: GI50 Du1. The essentials: as §1
In assay [10] the test system is HT1080 (human fibrosarcoma cells). In words: MTT cancer cell growth inhibition. The assay is classed as cell-based. Particulars: Homo sapiens, HT-1080, 72 h, MTT, 72 hours incubation, read-out: GI50 HT1. The essentials: as §1
For assay [11], the system named is MOLT-4 (human acute lymphoblastic leukemia cells). In words: MTT cancer cell growth inhibition. Particulars: Homo sapiens, MOLT-4, 72 h, MTT, 72 hours incubation, read-out: GI50 Mol. It is filed as cell-based. The method in brief: as §1
Assay [12] concerns MDA-MB-231 (breast cancer cells). Briefly: MTT cancer cell growth inhibition. It is filed as cell-based. The conditions noted are these: Homo sapiens, MDA-MB-231, 72 h, read-out: GI50 MDA-MB-231, MTT, 72 hours incubation, MDA-MB-231 cells. The method in brief:
as §1

For assay [13], the system named is lncap (prostate cancer cells). Briefly: MTT cancer cell growth inhibition. Particulars: Homo sapiens, LNCaP, 72 h, MTT, 72 hours incubation, read-out: GI50 lnca. The assay is classed as cell-based. The method in brief: as §1
Assay [14] concerns N-87 (human gastric cancer cells). In words: MTT cancer cell growth inhibition. Particulars: Homo sapiens, 72 h, MTT, 72 hours incubation, N-87 cells; read-out: GI50 N-87. It is filed as cell-based. The essentials:
as §1

Assay [15] concerns Hela (human cervical cancer cells). In words: MTT cancer cell growth inhibition. It is filed as cell-based. The conditions noted are these: Homo sapiens, HeLa, 72 h, MTT, 72 hours incubation, read-out: GI50 Hela. The essentials: as §1
In assay [16] the test system is H1975 (non-small cell lung adenocarcinoma). In words: MTT cancer cell growth inhibition. The assay is classed as cell-based. Particulars: Homo sapiens, NCI-H1975, 72 h, MTT, 72 hours incubation, H1975 cells; read-out: GI50 H1975. The method in brief: as §1
The subject of assay [17] is SGC-7901 (human gastric cancer cells). Briefly: MTT cancer cell growth inhibition. It is filed as cell-based. The conditions noted are these: Homo sapiens, SGC-7901, 72 h, MTT, 72 hours incubation, SGC-7901 cells; read-out: GI50 SGC-7901. The essentials:
as §1

The subject of assay [18] is KBM5-T315I (human chronic myelogenous leukemia). Briefly: MTT cancer cell growth inhibition. The conditions noted are these: Homo sapiens, 72 h, MTT, 72 hours incubation, KBM5-T315I cells; read-out: GI50 KBM5-T315I. It is filed as cell-based. The method in brief:
as §1

Assay [19] deals with BGC-823 (human gastric cancer cells). In words: MTT cancer cell growth inhibition. It is filed as cell-based. The conditions noted are these: Homo sapiens, BGC-823, 72 h, MTT, 72 hours incubation, read-out: GI50 BG. The essentials:
as §1

Assay [20] has as its system KBM-5 (human chronic myelogenous leukemia). In words: MTT cancer cell growth inhibition. The assay is classed as cell-based. The conditions noted are these: Homo sapiens, KBM5, 72 h, MTT, 72 hours incubation, KBM-5 cells; read-out: GI50 KBM-5. The essentials:
as §1

The next assay has as its target T1, HDAC7 (Homo sapiens, UniProt Q8WUI4).
T1 sequence (Q8WUI4 1-952): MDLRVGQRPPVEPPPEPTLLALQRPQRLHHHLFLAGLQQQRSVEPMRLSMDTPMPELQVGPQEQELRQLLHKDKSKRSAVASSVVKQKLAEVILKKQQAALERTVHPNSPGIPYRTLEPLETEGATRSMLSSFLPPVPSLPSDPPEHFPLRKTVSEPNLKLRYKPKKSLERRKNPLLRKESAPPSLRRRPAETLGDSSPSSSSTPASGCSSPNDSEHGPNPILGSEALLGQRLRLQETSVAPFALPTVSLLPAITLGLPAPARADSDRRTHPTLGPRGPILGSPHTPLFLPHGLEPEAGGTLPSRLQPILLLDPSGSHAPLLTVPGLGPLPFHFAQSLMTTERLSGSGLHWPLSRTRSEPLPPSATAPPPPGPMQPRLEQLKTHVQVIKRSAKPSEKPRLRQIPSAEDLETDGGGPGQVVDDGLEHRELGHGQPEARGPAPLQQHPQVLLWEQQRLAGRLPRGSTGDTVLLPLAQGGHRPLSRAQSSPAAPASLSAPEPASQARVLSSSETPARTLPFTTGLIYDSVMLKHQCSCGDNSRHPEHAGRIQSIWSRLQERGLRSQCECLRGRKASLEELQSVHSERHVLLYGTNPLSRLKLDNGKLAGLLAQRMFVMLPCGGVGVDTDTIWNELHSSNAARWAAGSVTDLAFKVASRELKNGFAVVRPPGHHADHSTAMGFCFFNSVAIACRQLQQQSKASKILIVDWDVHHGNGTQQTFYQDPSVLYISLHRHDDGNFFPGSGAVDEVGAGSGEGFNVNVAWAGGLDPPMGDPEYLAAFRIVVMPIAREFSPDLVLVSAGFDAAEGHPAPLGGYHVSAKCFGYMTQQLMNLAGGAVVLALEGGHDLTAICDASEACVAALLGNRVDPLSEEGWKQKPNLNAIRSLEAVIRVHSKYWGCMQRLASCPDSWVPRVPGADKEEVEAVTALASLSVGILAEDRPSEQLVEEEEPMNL
Briefly: HDAC biochemical activity measurement (fluorescent substrate deacetylation).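 Note: fluorogenic deacetylation assay using acetyl-lysine substrate at 20 µM, enzyme and compound incubated 30 min at 37 °C, then developer added, fluorescence read at 360/460 nm.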 Particulars: HDAC7; 37° C. 30 minutes.

Where two headings read alike, the source gives them in different places.

For `CC(C)=C1NC(=O)c2ccc(F)c(n2)CNC(=O)C[C@@H](/C=C/CCS)OC(=O)[C@H](C(C)C)NC1=O` [Compound 138], the GI50 in assay [1] was 20 nM; in [2] it was 76 nM; in assay [3] it was 36 nM; in assay [4] it was 21 nM; in [5], 40 nM; in [6], 30 nM. In addition, the GI50 was determined as 22 nM in [7]; 20 nM in assay [8]; 20 nM in assay [9]; 20 nM in assay [10]; 50 nM in [11]; 52 nM in assay [12]. For the same molecule, the GI50 in assay [13] came to 50 nM; in assay [14], 16 nM; in assay [15] it was 60 nM; in assay [16] it was 43 nM; in assay [17] it was 72 nM; in assay [18], 45 nM. Moreover, the GI50 in assay [19] was found to be 20 nM; in [20], 42 nM. For the same molecule, on HDAC7, the “IC50 HDAC7” value is recorded as “no activity”.

Turning to `C/C=C1\NC(=O)c2ncc(SC)c(n2)CNC(=O)C[C@@H](/C=C/CCSC(C)=O)OC(=O)[C@H](C)NC1=O` [Compound 219], the GI50 in [1] (U937 cells) came to 70 nM; in assay [2], 82 nM; in assay [3], 49 nM; in [4] it was 84 nM; in assay [5] (A549 cells) it was 30 nM; in [6] (PANC-1 cells) it was 80 nM. Further, the GI50 in [7] was found to be 39 nM; in assay [8] (MCF-7 cells) it was 60 nM; in assay [9] (DU145 cells), 50 nM; in [10] (HT1080 cells), 70 nM; in [11] (MOLT-4 cells) it was 80 nM; in [12], 34 nM. Besides, the concentration for 50% growth inhibition (GI50) in assay [13] (lncap cells) stood at 60 nM; in assay [14], 75 nM; in assay [15] (Hela cells), 90 nM; in assay [16], 33 nM; in assay [17], 63 nM; in assay [18], 39 nM. In addition, the GI50 in assay [19] (BGC-823 cells) amounted to 50 nM; in [20], 42 nM. For the same molecule, the “IC50 HDAC7” value at HDAC7 is “no activity”.

On to `C/C=C1\NC(=O)c2ccc(SC)c(n2)CNC(=O)C[C@@H](/C=C/CCSC(=O)CCCCCCC)OC(=O)[C@H](C(C)C)NC1=O` [Compound 149], for which the GI50 worked out at 20 nM in assay [1] (U937 cells); 63 nM in assay [2]; 75 nM in assay [3]; 32 nM in assay [4]; 20 nM in [5] (A549 cells); 30 nM in assay [6] (PANC-1 cells). Besides, the GI50 in assay [7] worked out at 29 nM; in assay [8] (MCF-7 cells) it was 60 nM; in assay [9] (DU145 cells), 60 nM; in [10] (HT1080 cells) it was 80 nM; in [11] (MOLT-4 cells), 80 nM; in assay [12] it was 35 nM. Further, the GI50 in assay [13] (lncap cells) amounted to 50 nM; in assay [14], 39 nM; in [15] (Hela cells), 50 nM; in assay [16] it was 70 nM; in assay [17], 42 nM; in assay [18], 41 nM. Moreover, the figures for the GI50 in assay [19] (BGC-823 cells) and in assay [20] were 30 nM and 21 nM, respectively. For the same molecule, at HDAC7, the “IC50 HDAC7” value was “no activity”.

As for `C/C=C1\NC(=O)c2cc(SC)cc(n2)CNC(=O)C[C@@H](/C=C/CCSC(=O)CCCCCCC)OC(=O)[C@H](CC)NC1=O` [Compound 172], the GI50 in assay [1] (U937 cells) turned out to be 40 nM; in assay [2], 73 nM; in assay [3], 23 nM; in assay [4], 26 nM; in assay [5] (A549 cells) it was 30 nM; in [6] (PANC-1 cells) it was 80 nM. For the same molecule, the GI50 in assay [7] turned out to be 32 nM; in assay [8] (MCF-7 cells), 60 nM; in [9] (DU145 cells) it was 40 nM; in assay [10] (HT1080 cells) it was 60 nM; in assay [11] (MOLT-4 cells) it was 20 nM; in [12] it was 78 nM. For the same molecule, the GI50 came out at 20 nM in [13] (lncap cells); 84 nM in [14]; 50 nM in assay [15] (Hela cells); 45 nM in assay [16]; 31 nM in [17]; 41 nM in assay [18]. Moreover, the GI50 in [19] (BGC-823 cells) was determined as 60 nM; in assay [20] it was 35 nM. Further, the “IC50 HDAC7” value on HDAC7 is listed as “no activity”.
